Assay results reported in patent publication US6451816B1, “Use of pyridyl alkane, pyridyl alkene and/or pyridyl alkine acid amides in the treatment of tumors or for immunosuppression” (Klinge Pharma GmbH, priority 1997, dated 2002).
Counter-ions that a name gives are not always drawn.

Row | melting point | Compound
1 | 112 to 114 °C | O=C(CCc1cccnc1)NCCCCCC1CCN(C(c2ccccc2)c2ccccc2)CC1 [Substance 142, N-[5-(1-Diphenylmethylpiperidin-4-yl)-pentyl]-3-(pyridin-3-yl)-propionamide]
2 | 109 to 110 °C | O=C(CCc1cccnc1)NCCCC1CCN(C(c2ccccc2)c2ccccc2)CC1 [Substance 96, N-[3-(1-Diphenylmethylpiperidin-4-yl)-propyl]-3-(pyridin-3-yl)-propionamide]
3 | 103 to 105 °C | O=C(COc1cccnc1)NCCCCC1CCN(C(c2ccccc2)c2ccccc2)CC1 [Substance 129, N-[4-(1-Diphenylmethylpiperidin-4-yl)-butyl]-2-(pyridin-3-yloxy)-acetamide]
4 | 80 to 82 °C | O=C(C=Cc1cccnc1)NCCCCC1CCN(C(=O)c2cccc3c2-c2ccccc2C3=O)CC1 [Substance 277, N-{4-[1-(9-oxo-9H-Fluorene-4-carbonyl)-piperidine-4-yl]-butyl}-3-(pyridin-3-yl)-acrylamide]
5 | 141 to 143 °C | O=C(C=Cc1cccnc1)NCCC1CCN(C(c2ccccc2)c2ccccc2)CC1 [Substance 95, N-[2-(1-Diphenylmethylpiperidin-4-yl)-ethyl]-3-(pyridin-3-yl)-acrylamide]
6 | 156 °C | O=C(C=Cc1cccnc1)NCCCCC1CCN(C(c2ccccc2)c2ccccc2)CC1 (as salt: methanesulfonate) [Substance 104, N-[4-(1-Diphenylmethylpiperidin-4-yl)-butyl]-3-(pyridin-3-yl)-acrylamide]
7 | 178 to 188 °C | Cl.Cl.O=C(C=Cc1cccnc1)NCCCCC1CCNCC1
8 | 103 to 105 °C | O=C(CCc1cccnc1)NCCCCC1CCN(S(=O)(=O)c2ccc3ccccc3c2)CC1 [Substance 337, N-{4-[1-(2-Naphthylsulfonyl)-piperidin-4-yl]-butyl}-3-(pyridin-3-yl)-propionamide]
9 | 115 to 117 °C | CCN(CCCCC1CCN(C(c2ccccc2)c2ccccc2)CC1)C(=O)/C=C/c1cccnc1 [Substance 123, N-[4-(1-Diphenylmethylpiperidin-4-yl)-butyl]-N-ethyl-3-(pyridin-3-yl)-acrylamide]
10 | 72 to 74 °C | O=C(C=Cc1cccnc1)NCC1CN(C(c2ccccc2)c2ccccc2)C1 [Substance 2, N-(1-Diphenylmethylazetidin-3-ylmethyl)-3-(pyridin-3-yl)-acrylamide]
11 | 110 to 112 °C | O=C(CCc1cccnc1)NCCCCC1CCN(C2c3ccccc3COc3ccccc32)CC1 (stereo not drawn) [Substance 230, N-{4-[1-(6,11-Dihydrodibenzo[b,e]-oxepin-11-yl)-piperidine-4-yl]-butyl}-3-(pyridin-3-yl)-propionamide]
12 | 88 to 90 °C | O=C(C=Cc1cccnc1)NCCCCC1CCN(Cc2ccccc2)CC1 [Substance 46, N-[4-(1-Benzylpiperidin-4-yl)-butyl]-3-(pyridin-3-yl)-acrylamide]
13 | 100 to 102 °C | O=C(C=Cc1cccnc1)NCCCOC1CCN(Cc2ccccc2)CC1 [Substance 55, N-[3-(1-Benzylpiperidine-4-yloxy)-propyl]-3-(pyridin-3-yl)-acrylamide]
14 | 164 to 166 °C | O=C(C=CC=Cc1cccnc1)NCCCCC1CCN(C(c2ccccc2)c2ccccc2)CC1 [Substance 132, N-[4-(1-Diphenylmethylpiperidine-4-yl)-butyl]-5-(pyridin-3-yl)-2,4-pentadienoic Acid Amide]
15 | 108 °C | O=C(C=Cc1cccnc1)NCCCCC1CCN(C(c2ccc(F)cc2)c2ccc(F)cc2)CC1 [Substance 171, N-(4-{1-[bis-(4-Fluorophenyl)-methyl]-piperidin-4-yl}-butyl)-3-(pyridin-3-yl)-acrylamide]
